Patent EP2982682A1, “CHIMERIC PEPTIDE AND PHARMACEUTICAL COMPOSITION FOR TREATING ONCOLOGICAL DISEASES” (Obshestvo S Ogranichennoj Otvetstvennost`yu "Metamax", priority 2013, dated 2014)
Square brackets hold non-standard residues; d marks the D form. Ends that are not written are not given here. Ahx = NCCCCCC(=O)O

Columns and labels:
MCF-7 = test: Cytostatic effect: cell cycle phases on DNA-histograms after synchronization in G0/G1; type: cell-based; settings: 10 and 40 µM
Experimental: (§1) Using cell lines MCF-7, HCT-116, A549 (lung adenocarcinoma) and SKOV (ovarian cancer) we studied the effect of the peptide sequences on the cells proliferative activity. The experiments involved synchronization of the cells in G0/G1-phase of the cells cycle using depleted culture medium. The cells in 24-well plate were held for 48 hours in the medium containing 0.5% PBS, then the synchronization block was removed via replacement of the medium with one containing 5% PBS and the study peptides in different concentrations. It was incubated for 24 hours, and then the cells were removed from the matrix using trypsin, washed in PSB, fixed in ethanol. Staining of samples, washing from ethanol in PBS using centrifugation, incubation with RNA-ase, staining with propidium iodide. Analysis was performed using flow cytometry, we evaluated the distribution of cells in the cell cycle phases on DNA-histograms using ModFit 3.0 software. For cells cultures MCF-7 and HCT-116 we studied the effect of 5 peptide sequences in concentrations of 10 and 40 µM. It was shown that the study sequences are able to decrease the proliferating activity of the dividing cells (Figure 9).

pRb in MCF-7 = test: Level of underphosphorylated pRb by flow cytometry; type: cell-based; settings: 10 and 40 µM
Text: (§2) Although the literature describes the retention of such peptides properties to inhibit a phosphorylating function for cyclin-dependent kinases, this was confirmed in cell extracts. We monitored changes in the level of pRB phosphorylation - molecular target of type D cyclin kinase against the background of the investigated peptides, including the sequences, having homology with p16INK4a, at the cellular level with the help of flow cytometry method.
(§3) Flow cytometry allows to render the cells, where the pRb product is in the "underphosphorylated" state. The fluorescently labeled antibodies interact with "underphosphorylated" pRb.
(§4) To determine the amount of "underphosphorylated" pRb, a series of experiments was performed, where the study peptide sequences were added to the cell cultures, synchronized with the help of depleted cell culture medium method (MCF-7, HCT-116), after removing the synchronization block, then the cells were sampled every two hours. A part of the cells from each plate was fixed to further define the phases of the cell cycle, and to determine the amount of the "underphosphorylated" pRb. Also a negative control was set in the form of synchronized cells samples, but without added peptide. It was shown that introduction of the peptide sequences into the cell culture inhibits the pRb phosphorylation and reduces its maximum level in the culture (Figure 19).

MCF-7 (breast cancer) [1] = test: Cytotoxic activity on proliferating cell lines, Annexin V/PI flow cytometry; type: cell-based; settings: 5-40 µM, 24 hours
Experimental: (§5) We studied the effect of peptide sequences D37K, F26K-1, F26K-2, W26K-1, W26K-2 on the cells of transplanted cell cultures MCF-7 (breast cancer), A549 (lung adenocarcinoma), SKOV (ovarian cancer) and HCT116 (colon adenocarcinoma).
(§6) When preparing for the experiment the cells cultures were placed in 24-well plates in amount of 1 * 10^4 cells per well, incubated for 48 hours at 37°C and 5% CO2, medium DMEM (PanEco, Russia), containing glutamine, gentamicin, 10% PBS. After such incubation the cell cultures formed loose mono-layer. Experimental set-up: culture medium was replaced with the medium containing the study peptides in the concentrations of 5 µM, 10 µM, 20 µM, 40 µM; in the control samples the medium contained DMSO 20 µL to determine the effect of solvent (peptides were dissolved in DMSO). Incubation time was 24 hours. Then the cells were carefully removed from the matrix using trypsin (cells in the wells with peptides were attached stronger than the control sample), the medium was removed via centrifugation at 3,000 rounds for 7 minutes, supernatant fluid was removed and the staining was performed using double mark Annexin V/PI. Analysis was performed using flow cytometer and evaluated the number of cells including Annexin V - apoptosis, the number of cells including propidium iodide - dead cells, the number of intact cells - live cells.

SKOV (ovarian cancer) = test: Cytostatic effect: cell cycle phases and hypodiploid peak on DNA-histograms after synchronization; type: cell-based; settings: 5-40 µM, 24 hours
Experimental: as §1
When studying the effect of the peptide sequences on SKOV cells culture the incubation was performed with the sequences F26K-1, F26K-2, W26K-1, and W26K-2. […]

pRb in HCT-116 = test: Level of underphosphorylated pRb by flow cytometry; type: cell-based, human
Text: as §2, §3, §4
As it is seen in Figure 19, the level of "underphosphorylated" pRb begins to grow after removal of the synchronization block in the control samples without addition of the peptide, and to a certain point (4 or 6 hours of incubation), depending on the cell line, it reaches a maximum and then begins to decline. In the samples with peptides the level of "underphosphorylated" pRb begins to increase later and reaches its maximum after 12-18 hours of incubation, the delay in reaching the maximum level of pRb depends on concentration of the peptide sequences. […] We analyzed the level of "underphosphorylated" pRb every two hours; the maximum incubation time was 24 hours.

[2] = test system: HCT116 (colon adenocarcinoma); test: Cytotoxic activity on proliferating cell lines, Annexin V/PI flow cytometry; type: cell-based, human; settings: 5-40 µM, 24 hours
Experimental: as §5, §6

HCT-116 = test: Cytostatic effect: cell cycle phases on DNA-histograms after synchronization in G0/G1; type: cell-based, human
Experimental: as §1

Bcl-2 in HCT-116 cells = test: Level of Bcl-2 in cells, antibody staining and flow cytometry; type: cell-based, human; settings: 24 hours
Experimental: Example 4. Investigation of the peptide sequences effect on change in the level of Bcl-2 Monoclonal antibodies Anti Human Bcl-2 (Caltag Laboratories, USA) were used to estimated change in the level of Bcl-2 in HCT-116 cells when incubated with the study peptide sequence. The cells were transferred to a 24-well plate at 1 x 10^4 per well, grown for 48 hours under normal conditions (medium DMEM, 10%), then synchronized using the depleted medium containing 0.5% PBS for 48 hours. Upon removing the synchronizing block the medium containing 10% PBS was added to the cells, and the peptide sequences were studied at concentrations of 10 and 40 µM. Incubation with the peptides was performed for 24 hours, then the culture was removed with the help of trypsin, fixed for one hour with PBS containing 1% formaldehyde, and then fixed with ethanol. The staining and the analysis were performed according to the antibodies manufacturer's instructions. […] It is thereby shown that the apoptosis induced by introduction of the peptide sequences into the culture medium is explained by influence of the peptides on specific molecular processes of the cell.

MCF-7 (breast cancer) [3] = test: Combined effect with Taxol or 5-fluorouracil, Annexin and propidium iodide flow cytometry; type: cell-based; settings: 10, 20, 30 µM, 24 hours
Experimental: In cell culture MCF-7 (breast cancer) there was investigated the combined effect of DA, 5-fluorouracil and Taxol, and the sequences D37K and F26K-2 (in the cytotoxicity studies the sequence had the most pronounced effect on the MCF-7 culture). The cells were grown in 24-well plates to 70% of the monolayer, followed by replacement of the medium with the medium containing the target sequence and drugs in concentrations of 10, 20 and 30 µM. The incubation time was 24 hours. Analyzed cells, which entered into apoptosis, were detected using Annexin and propidium iodide staining, flow cytometry.

pRb in SKOV cell line = test: Level of underphosphorylated pRb by flow cytometry; type: cell-based; settings: 10 and 40 µM
Experimental: as §3
In the study of the "underphosphorylated" pRb level using SKOV cell line, the delay effect in formation of "underphosphorylated" pRb was lower than for cultures MCF-7 and HCT-116, although this cell line was previously shown to have the proliferation delay effect during incubation of the cells with the study peptide sequences. […] Obvious "underphosphorylated" pRb formation delay effect compared to the control sample, however, in the case of SKOV cell line, was somewhat lower than that of cultures of MCF-7 and HCT-116.

H-FLDAILLI[Ahx] [F26K-2]
antiproliferative effect (MCF-7): most clear antiproliferative effect | delay in the formation of "underphosphorylated" pRb (pRb in MCF-7): greatest delay | apoptosis level (Annexin V) (MCF-7 (breast cancer) [1]): more pronounced pro-apoptosis effect | antiproliferative effect (cells in G0/G1 and S+G2/M) (SKOV (ovarian cancer)): caused the delay of proliferation | delay in formation of "underphosphorylated" pRb (pRb in HCT-116; 10 and 40 µM): greatest effect of the delay | incubation time of maximum level of "underphosphorylated" pRb (pRb in HCT-116; peptide 10 µM): 16 hours | incubation time of maximum level of "underphosphorylated" pRb (pRb in HCT-116; peptide 40 µM): 20 hours | apoptosis level (Annexin V) [2]: more pronounced pro-apoptosis effect | antiproliferative effect (HCT-116; 10 and 40 µM): most clear antiproliferative effect | delay in cells leaving the rest phase (HCT-116; synchronized culture, 40 µM (Fig. 10)): 8 to 12 h | inhibition of the expression of Bcl-2 protein (Bcl-2 in HCT-116 cells; 10 and 40 µM): strongest inhibition | decrease of the level of Bcl-2-positive cells (Bcl-2 in HCT-116 cells; 40 µM): over 15% | combined use with 5-fluorouracil, cytotoxic effect (MCF-7 (breast cancer) [3]): linear amplification | combined use with Taxol, level of apoptosis (MCF-7 (breast cancer) [3]): summation of cytotoxic effects | delay in formation of "underphosphorylated" pRb as compared to the control (pRb in SKOV cell line): 4-10 hours
